# In patent US6642217B2, “Triterpenes having human antifungal and antiyeast activity” (Naturtek, LLC, priority 2000, dated 2003):
# Experiments:
# Microsporum canis [1] = assay: Agar dilution method, growth on Sabouraud dextrose agar slants; format: cell-based; parameters: key: +++: Maximum Fungal Growth; ++: Moderate Fungal Growth; +: Minimum Fungal Growth; +/−: Very little Fungal Growth; −: No Fungal Growth; conditions: 12th day after inoculation
# In short: (§1)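 Compound, dissolved in DMSO, was mixed into molten Sabouraud dextrose agar at 45 °C and set as slants before fungal inoculation. Slants were incubated at 25-28 °C for 10-12 days, with growth scored every second day.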
# Microsporum gypseum [2] = assay: as above; format: cell-based; parameters: key: +++: Maximum Fungal Growth; ++: Moderate Fungal Growth; +: Minimum Fungal Growth; +/−: Very little Fungal Growth; −: No Fungal Growth; conditions: 12th day after inoculation
# In short: as §1
# Pityrosporum ovale [3] = assay: as above; format: cell-based; parameters: key: +++: Maximum Fungal Growth; ++: Moderate Fungal Growth; +: Minimum Fungal Growth; +/−: Very little Fungal Growth; −: No Fungal Growth; conditions: 12th day after inoculation
# In short: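 In this agar dilution format, DMSO solutions of compound went into liquid Sabouraud dextrose agar (45 °C), which was slanted and inoculated. Incubation ran 10-12 days at 25-28 °C.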
# Trichophyton rubrum [4] = assay: as above; format: cell-based; parameters: key: +++: Maximum Fungal Growth; ++: Moderate Fungal Growth; +: Minimum Fungal Growth; +/−: Very little Fungal Growth; −: No Fungal Growth; conditions: 12th day after inoculation
# In short: as §1
# Microsporum audouinni [5] = assay: as above; format: cell-based, Microsporum audouinii; parameters: key: +++: Maximum Fungal Growth; ++: Moderate Fungal Growth; +: Minimum Fungal Growth; +/−: Very little Fungal Growth; −: No Fungal Growth; conditions: 12th day after inoculation
# In short: as §1
# Trichophyton tonsuran [6] = assay: as above; format: cell-based, Trichophyton tonsurans; parameters: key: +++: Maximum Fungal Growth; ++: Moderate Fungal Growth; +: Minimum Fungal Growth; +/−: Very little Fungal Growth; −: No Fungal Growth; conditions: 12th day after inoculation
# In short: as §1
# [7] = test system: Trichophyton mentagrophyte; assay: as above; format: cell-based, Trichophyton mentagrophytes; parameters: key to Fungal growth: +++: Maximum Fungal Growth; ++: Moderate Fungal Growth; +: Minimum Fungal Growth; +/−: Very little Fungal Growth; −: No Fungal Growth; conditions: 12th day after inoculation
# In short: as §1
# Epidermophyton floccosum [8] = assay: as above; format: cell-based; parameters: key to Fungal growth: +++: Maximum Fungal Growth; ++: Moderate Fungal Growth; +: Minimum Fungal Growth; +/−: Very little Fungal Growth; −: No Fungal Growth; conditions: 12th day after inoculation
# In short: as §1
# Trichophyton rubrum [9] = assay: Direct addition method, solid compound in Sabouraud dextrose agar; format: cell-based; conditions: against Trichophyton rubrum
# Procedure: (§2) Direct addition method. Sabouraud dextrose agar was prepared according to the manufacturer's instructions and 5.0 ml was dispensed in each 100×25 mm tube. The tubes were autoclaved. To each tube containing 5.0 ml of liquid agar at 45° C., 20 mg of solid test compound was added, to give a final concentration of 4 mg/ml. The agar was solidified in slants. The fungal cultures were then innoculated. The slants were incubated at 25-28 ° C. for 10-12 days, and the growth of the fungus was recorded every second day. The results in Table 2 indicate growth at the 12th day of inoculation.
# Microsporum audouinni [10] = assay: as above; format: cell-based, Microsporum audouinii; parameters: key to Fungal growth: +++: Maximum Fungal Growth; ++: Moderate Fungal Growth; +: Minimum Fungal Growth; +/−: Very little Fungal Growth; −: No Fungal Growth; conditions: for Fungal growth: 4 mg/mL of agar, 12th day after inoculation
# In short: (§3)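 Presence or absence of fungal growth was noted on alternate days, with the day-12 observation used. Test material, added undissolved to 45° C. Sabouraud dextrose medium to reach 4 mg/ml final, was solidified as slants before inoculation and incubation at 25-28° C.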
# Trichophyton tonsuran [11] = assay: as above; format: cell-based, Trichophyton tonsurans; parameters: key: +++: Maximum Fungal Growth; ++: Moderate Fungal Growth; +: Minimum Fungal Growth; +/−: Very little Fungal Growth; −: No Fungal Growth; conditions: 4 mg/mL of agar; 12th day after inoculation
# Procedure: as §2
# Microsporum audouinii = assay: Summary of anti-fungal assays (direct addition, agar dilution, liquid culture); format: cell-based; conditions: stated in words (Tables 1a/1b, text to Table 5)
# Procedure: (§4) This example summarizes the results of various other assays of the anti-fungal activity of betulin derivatives. Table 5 summarizes results using different assay methods—direct addition, agar dilution, and direct addition to liquid culture, as disclosed in the previous three Examples. In some cases, only one type of assay was done with a compound. In other cases, the compound was tested by multiple assays.
# herpes simplex virus = conditions: cited from earlier work
# Epidermophyton floccosum [12] = assay: Direct addition method, solid compound in Sabouraud dextrose agar; format: cell-based; parameters: key: +++: Maximum Fungal Growth; ++: Moderate Fungal Growth; +: Minimum Fungal Growth; +/−: Very little Fungal Growth; −: No Fungal Growth; conditions: 4 mg/mL of agar; 12th day after inoculation
# In short: as §3
# Microsporum canis [13] = assay: as above; format: cell-based; parameters: key: +++: Maximum Fungal Growth; ++: Moderate Fungal Growth; +: Minimum Fungal Growth; +/−: Very little Fungal Growth; −: No Fungal Growth; conditions: 4 mg/mL of agar; 12th day after inoculation
# In short: as §3
# Microsporum gypseum [14] = assay: as above; format: cell-based; parameters: key: +++: Maximum Fungal Growth; ++: Moderate Fungal Growth; +: Minimum Fungal Growth; +/−: Very little Fungal Growth; −: No Fungal Growth; conditions: 4 mg/mL of agar; 12th day after inoculation
# In short: as §3
# Pityrosporum ovale [15] = assay: as above; format: cell-based; parameters: key: +++: Maximum Fungal Growth; ++: Moderate Fungal Growth; +: Minimum Fungal Growth; +/−: Very little Fungal Growth; −: No Fungal Growth; conditions: 4 mg/mL of agar; 12th day after inoculation
# In short: as §3
# [16] = test system: Trichophyton mentagrophytes; assay: as above; format: cell-based; parameters: key: +++: Maximum Fungal Growth; ++: Moderate Fungal Growth; +: Minimum Fungal Growth; +/−: Very little Fungal Growth; −: No Fungal Growth; conditions: 4 mg/mL of agar; 12th day after inoculation
# In short: as §3
# Trichophyton rubrum [17] = assay: as above; format: cell-based; parameters: key: +++: Maximum Fungal Growth; ++: Moderate Fungal Growth; +: Minimum Fungal Growth; +/−: Very little Fungal Growth; −: No Fungal Growth; conditions: 4 mg/mL of agar; 12th day after inoculation
# In short: as §3
# Microsporum canis [18] = assay: as above; format: cell-based; conditions: against Microsporum canis
# Procedure: as §2
# Pityrosporum ovale [19] = assay: Direct addition into the Pityrosporum agar; format: cell-based; parameters: key to Pityrosporum ovale growth: +++: Maximum Growth; ++: Moderate Growth; +: Minimum Growth; +/−: Very Little Growth; −: No Growth; conditions: 4 mg/ml in the agar; 18 hours after inoculation
# Procedure: as §2, with “The slants were incubated at 25-28 ° C. for 10-12 days, and the growth of the fungus was recorded every second day. The results in Table 2 indicate growth at the 12th day of inoculation.” left out
# Microsporum canis [20] = assay: Direct addition method, solid compound in Sabouraud dextrose agar; format: cell-based; parameters: key: +++: Maximum Fungal Growth; ++: Moderate Fungal Growth; +: Minimum Fungal Growth; +/−: Very Little Fungal Growth; −: No Fungal Growth; conditions: 4 mg/mL of agar; 12th day after inoculation
# Procedure: as §2
# Blastomyces dermatidis = assay: Summary of anti-fungal assays (direct addition, agar dilution, liquid culture); format: cell-based; conditions: stated in words (Tables 1a/1b, text to Table 5)
# Procedure: as §4
# Candida albicans = assay: as above; format: cell-based; conditions: stated in words (Tables 1a/1b, text to Table 5)
# Procedure: as §4
# Epidermophyton floccosum [21] = assay: as above; format: cell-based; conditions: stated in words (Tables 1a/1b, text to Table 5); listed as betulin-3,28-dioxalate-3,28-polyethyleneimine
# Procedure: as §4
# Microsporum gypseum [22] = assay: as above; format: cell-based; conditions: stated in words (Tables 1a/1b, text to Table 5)
# Procedure: as §4
# [23] = test system: Trichophyton mentagrophytes; assay: as above; format: cell-based; conditions: stated in words (Tables 1a/1b, text to Table 5)
# Procedure: as §4
# Trichophyton tonsurans = assay: as above; format: cell-based; conditions: stated in words (Tables 1a/1b, text to Table 5)
# Procedure: as §4
# Crytococcus neoformans = assay: as above; format: cell-based, Cryptococcus neoformans; conditions: stated in words (Tables 1a/1b, text to Table 5)
# Procedure: as §4
molecule,measurement,setting,value
"C=C(C)[C@@H]1CC[C@]2(CO)CC[C@]3(C)[C@H](CC[C@@H]4[C@@]5(C)CC[C@H](O)C(C)(C)[C@@H]5CC[C@]43C)[C@@H]12 [Betulin, lup-20(29)-ene-3,28-diol]",Fungal growth,Microsporum canis [1]; 12.5 μg/ml,++
same,Fungal growth,Microsporum canis [1]; 25 μg/ml,+
same,Fungal growth,Microsporum canis [1]; 50 μg/ml,+/−
same,Fungal growth,Microsporum canis [1]; 100 μg/ml,−
same,Fungal growth,Microsporum gypseum [2]; 12.5 μg/ml,+++
same,Fungal growth,Microsporum gypseum [2]; 25 μg/ml,++
same,Fungal growth,Microsporum gypseum [2]; 50 μg/ml,++
same,Fungal growth,Microsporum gypseum [2]; 100 μg/ml,−
same,Fungal growth,Pityrosporum ovale [3]; 12.5 μg/ml,+++
same,Fungal growth,Pityrosporum ovale [3]; 25 μg/ml,+++
same,Fungal growth,Pityrosporum ovale [3]; 50 μg/ml,++
same,Fungal growth,Pityrosporum ovale [3]; 100 μg/ml,+/−
same,Fungal growth,Trichophyton rubrum [4]; 12.5 μg/ml,++
same,Fungal growth,Trichophyton rubrum [4]; 25 μg/ml,++
same,Fungal growth,Trichophyton rubrum [4]; 50 μg/ml,+
same,Fungal growth,Trichophyton rubrum [4]; 100 μg/ml,−
same,Fungal growth,Microsporum audouinni [5]; 12.5 μg/ml,+/−
same,Fungal growth,Microsporum audouinni [5]; 25 μg/ml,+/−
same,Fungal growth,Microsporum audouinni [5]; 50 μg/ml,−
same,Fungal growth,Microsporum audouinni [5]; 100 μg/ml,−
same,Fungal growth,Trichophyton tonsuran [6]; 12.5 μg/ml,+++
same,Fungal growth,Trichophyton tonsuran [6]; 25 μg/ml,++
same,Fungal growth,Trichophyton tonsuran [6]; 50 μg/ml,++
same,Fungal growth,Trichophyton tonsuran [6]; 100 μg/ml,−
same,Fungal growth,[7]; 12.5 μg/ml,++
same,Fungal growth,[7]; 25 μg/ml,+
same,Fungal growth,[7]; 50 μg/ml,+/−
same,Fungal growth,[7]; 100 μg/ml,−
same,Fungal growth,Epidermophyton floccosum [8]; 12.5 μg/ml,+
same,Fungal growth,Epidermophyton floccosum [8]; 25 μg/ml,+
same,Fungal growth,Epidermophyton floccosum [8]; 50 μg/ml,−
same,Fungal growth,Epidermophyton floccosum [8]; 100 μg/ml,−
same,best anti-fungal or anti-yeast activity by the direct addition method,Trichophyton rubrum [9],against Trichophyton rubrum
same,Fungal growth,Microsporum audouinni [10],−
same,best anti-fungal or anti-yeast activity by the direct addition method,Microsporum audouinni [10]; against Microsporum audouinii,against Microsporum audouinii
same,Fungal growth,Trichophyton tonsuran [11],++
same,Active against Microsporum audouinii,Microsporum audouinii,"Microsporum audouinii,"
same,Anti-viral activity against herpes simplex virus,herpes simplex virus,anti-viral activity
same,Fungal growth,Epidermophyton floccosum [12],−
same,Fungal growth,Microsporum canis [13],+
same,Fungal growth,Microsporum gypseum [14],++
same,Fungal growth,Pityrosporum ovale [15],−
same,Fungal growth,[16],++
same,Fungal growth,Trichophyton rubrum [17],−
"C=C(C)[C@@H]1CC[C@]2(COC(=O)CN)CC[C@]3(C)[C@H](CC[C@@H]4[C@@]5(C)CC[C@H](OC(=O)CN)C(C)(C)[C@@H]5CC[C@]43C)[C@@H]12 [Betulin-3,28-diglycine]",best anti-fungal or anti-yeast activity by the direct addition method,Microsporum canis [18],against Microsporum canis
same,Fungal growth,Microsporum audouinni [10],+
same,Pityrosporum ovale growth,Pityrosporum ovale [19],+
same,Fungal growth,Epidermophyton floccosum [12],−
same,Fungal growth,Pityrosporum ovale [15],−
same,Fungal growth,Trichophyton rubrum [17],+
same,Fungal growth,Microsporum canis [20],+/−
"Betulin-3,28-dioxalate-3,28-polyethyleneimine",Active against Blastomyces dermatidis,Blastomyces dermatidis,against Blastomyces dermaidis
same,Active against Candida albicans,Candida albicans,"Candida albicans,"
same,Active against Epidermophyton floccosum,Epidermophyton floccosum [21],against Epidermophyton floccosum
same,Active against Microsporum audouinii,Microsporum audouinii,"Microsporum audouinii,"
same,Active against Microsporum gypseum,Microsporum gypseum [22],"Microsporum gypseum,"
same,Active against Trichophyton mentagrophytes,[23],"Trichophyton mentagrophytes,"
same,Active against Trichophyton tonsurans,Trichophyton tonsurans,"Trichophyton tonsurans,"
same,Active against Cryptococcus neoformans,Crytococcus neoformans,against Crytococcus neoformans
